PubChem BioAssay AID192 (DTP/NCI, 2004)
Where “and” joins values, the source holds several entries; their conditions need not be identical. Equal entries are not always repeated. Inconclusive results and toxic doses are left out. Rule for the calls: active = survival T/C of 150% or more; inactive = T/C below 125% in these data. Square brackets hold non-standard residues; d marks the D form. Peptide text beside a SMILES is read from it. * marks the point of attachment. ξ: configuration not given here. ξAsp(βξ-Me) = CC(C(=O)O)C(N)C(=O)O; X4 = CC(N*)C1NC(=O)C2CCCCN2C1=O; ξAbu(3ξ-NH2) = CC(N)C(N)C(=O)O; X3 = CCC(C)CCC/C=C/CC(=O)*

System: BDF1 mice, B16 melanoma ip, median survival T/C
Assay: NCI In Vivo Anticancer Drug Screen. Data for tumor model B16 Melanoma (intraperitoneal) in B6D2F1 (BDF1) mice
Conditions: endpoint: median survival time, higher = longer survival
In short: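 In this screen, activity was judged from survival or tumor size in treated versus vehicle-treated tumor-bearing mice, reported as T/C.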

[1] = dose: 25.0 mg/kg/injection, schedule: Q01DX009 (ip), vehicle: saline with Tween-80
[2] = dose: 50.0 mg/kg/injection, schedule: Q01DX009 (ip), vehicle: saline with Tween-80
[3] = dose: 100.0 mg/kg/injection, schedule: Q01DX009 (ip), vehicle: saline with Tween-80
[4] = dose: 6.25 mg/kg/injection, schedule: Q01DX009 (ip), vehicle: saline
[5] = dose: 12.5 mg/kg/injection, schedule: Q01DX009 (ip), vehicle: saline
[6] = dose: 25.0 mg/kg/injection, schedule: Q01DX009 (ip), vehicle: saline
[7] = dose: 100.0 mg/kg/injection, schedule: Q01DX009 (ip), vehicle: Klucel (hydroxypropylcellulose) (HPC)
[8] = dose: 400.0 mg/kg/injection, schedule: Q01DX009 (ip), vehicle: Klucel (hydroxypropylcellulose) (HPC)
[9] = dose: 0.62 mg/kg/injection, schedule: Q01DX009 (ip), vehicle: saline
[10] = dose: 1.25 mg/kg/injection, schedule: Q01DX009 (ip), vehicle: saline
[11] = dose: 50.0 mg/kg/injection, schedule: Q01DX009 (ip), vehicle: saline

Measured: T/C

CC(=O)CC(c1ccccc1)c1c(O)c2ccccc2oc1=O (centres undefined)
inactive: dose: 0.05 mg/kg/injection, schedule: Q01DX009 (ip), vehicle: saline with Tween-80 107 % of control | dose: 0.1 mg/kg/injection, schedule: Q01DX009 (ip), vehicle: saline with Tween-80 98 % of control | dose: 0.2 mg/kg/injection, schedule: Q01DX009 (ip), vehicle: saline with Tween-80 104 % of control | dose: 0.8 mg/kg/injection, schedule: Q01DX009 (ip), vehicle: saline with Tween-80 90 % of control

Cc1ccc(Cl)cc1NC(=O)c1ccc([N+](=O)[O-])cc1
inactive: [1] 112 % of control | [2] 110 % of control | [3] 96 % of control

CN1CCN(c2ccc([N+](=O)[O-])c3no[n+]([O-])c23)CC1
inactive: dose: 5.0 mg/kg/injection, schedule: Q01DX009 (ip), vehicle: saline with Tween-80 111 % of control | dose: 5.0 mg/kg/injection, schedule: Q01DX011 (ip), vehicle: saline with Tween-80 110 % of control | dose: 10.0 mg/kg/injection, schedule: Q01DX009 (ip), vehicle: saline with Tween-80 107 % of control | dose: 10.0 mg/kg/injection, schedule: Q01DX011 (ip), vehicle: saline with Tween-80 109 % of control

COC(=O)[c-]1[c-][c-][c-][c-]1.COC(=O)[c-]1[c-][c-][c-][c-]1.[Fe]
inactive: dose: 18.0 mg/kg/injection, schedule: Q01DX009 (ip), vehicle: Klucel (hydroxypropylcellulose) (HPC) 95 % of control and 103 % of control | dose: 28.75 mg/kg/injection, schedule: Q01DX009 (ip), vehicle: Klucel (hydroxypropylcellulose) (HPC) 104 % of control and 106 % of control | dose: 33.75 mg/kg/injection, schedule: Q04DX003 (ip), vehicle: Klucel (hydroxypropylcellulose) (HPC) 114 % of control | dose: 45.0 mg/kg/injection, schedule: Q01DX009 (ip), vehicle: Klucel (hydroxypropylcellulose) (HPC) 103 % of control and 118 % of control | dose: 67.5 mg/kg/injection, schedule: Q04DX003 (ip), vehicle: Klucel (hydroxypropylcellulose) (HPC) 92 % of control

CCN(CC)CCC1CCNCC1
inactive: [4] 112 % of control | [5] 112 % of control | [6] 106 % of control

CCc1ccccc1NC(=O)C(c1ccccc1)c1ccccc1
inactive: [1] 99 % of control | [2] 97 % of control | [3] 92 % of control

CCCCN(CC)C(=S)S[Te](SC(=S)N(CC)CCCC)(SC(=S)N(CC)CCCC)SC(=S)N(CC)CCCC
inactive: [7] 110 % of control | [8] 100 % of control

OC1CC2CC1C1C=CCC21 (centres undefined)
inactive: [2] 95 % of control | [3] 95 % of control | dose: 200.0 mg/kg/injection, schedule: Q01DX009 (ip), vehicle: saline with Tween-80 90 % of control

CC1CCC2(OC1)OC1C(O)C3C4CCC5CC(OC6OC(CO)C(OC7OC(CO)C(O)C(OC8OCC(O)C(O)C8O)C7OC7OC(CO)C(O)C(OC8OC(CO)C(O)C(O)C8O)C7O)C(O)C6O)C(O)CC5(C)C4CCC3(C)C1C2C (centres undefined)
inactive: [9] 109 % of control | [10] 99 % of control | dose: 2.5 mg/kg/injection, schedule: Q01DX009 (ip), vehicle: saline 103 % of control | dose: 5.0 mg/kg/injection, schedule: Q01DX009 (ip), vehicle: saline 92 % of control

Cc1nc(N)nc(N)c1-c1ccc(Cl)c(Cl)c1
inactive: dose: 0.25 mg/kg/injection, schedule: Q01DX009 (ip), vehicle: saline with Tween-80 104 % of control | dose: 0.5 mg/kg/injection, schedule: Q01DX009 (ip), vehicle: saline with Tween-80 102 % of control | [9] 102 % of control | dose: 0.75 mg/kg/injection, schedule: Q01DX009 (ip), vehicle: saline with Tween-80 115 % of control | dose: 1.0 mg/kg/injection, schedule: Q01DX009 (ip), vehicle: saline with Tween-80 100 % of control | dose: 1.0 mg/kg/injection, schedule: Q02DX009 (ip), vehicle: Klucel (hydroxypropylcellulose) (HPC) 98 % of control | dose: 1.0 mg/kg/injection, schedule: Q02DX009 (ip), vehicle: saline with Tween-80 113 % of control | [10] 107 % of control | dose: 1.5 mg/kg/injection, schedule: Q04DX003 (ip), vehicle: saline with Tween-80 90 % of control | dose: 2.0 mg/kg/injection, schedule: Q01DX009 (ip), vehicle: saline with Tween-80 120 % of control | dose: 2.0 mg/kg/injection, schedule: Q02DX009 (ip), vehicle: Klucel (hydroxypropylcellulose) (HPC) 100 % of control | dose: 2.0 mg/kg/injection, schedule: Q02DX009 (ip), vehicle: saline with Tween-80 119 % of control | dose: 3.0 mg/kg/injection, schedule: Q01DX009 (ip), vehicle: saline with Tween-80 112 % of control | dose: 3.0 mg/kg/injection, schedule: Q04DX003 (ip), vehicle: saline with Tween-80 90 % of control | dose: 4.0 mg/kg/injection, schedule: Q02DX009 (ip), vehicle: Klucel (hydroxypropylcellulose) (HPC) 100 % of control | dose: 4.0 mg/kg/injection, schedule: Q04DX003 (ip), vehicle: saline with Tween-80 96 % of control | dose: 6.0 mg/kg/injection, schedule: Q04DX003 (ip), vehicle: saline with Tween-80 102 % of control | dose: 8.0 mg/kg/injection, schedule: Q02DX009 (ip), vehicle: Klucel (hydroxypropylcellulose) (HPC) 121 % of control | dose: 8.0 mg/kg/injection, schedule: Q04DX003 (ip), vehicle: saline with Tween-80 97 % of control | dose: 10.0 mg/kg/injection, schedule: Q04DX003 (ip), vehicle: saline with Tween-80 93 % of control

COc1ccc(C(C)=O)cc1N
inactive: dose: 100.0 mg/kg/injection, schedule: Q04DX003 (ip), vehicle: Klucel (hydroxypropylcellulose) (HPC) 100 % of control | dose: 200.0 mg/kg/injection, schedule: Q04DX003 (ip), vehicle: Klucel (hydroxypropylcellulose) (HPC) 97 % of control | dose: 400.0 mg/kg/injection, schedule: Q04DX003 (ip), vehicle: Klucel (hydroxypropylcellulose) (HPC) 95 % of control

CCC(C)CCC/C=C/CC(=O)NC(CC(=O)O)C(=O)NC(C(=O)NC(CC(=O)O)C(=O)NCC(=O)NC(CC(=O)O)C(=O)NCC(=O)NC(C(=O)NC(C(=O)N1CCCC1C(=O)NC(C)C1NC(=O)C2CCCCN2C1=O)C(C)C)C(C)N)C(C)C(=O)O (stereo not drawn) (X3-D[ξAsp(βξ-Me)]DGDG[ξAbu(3ξ-NH2)]VP-X4; configuration not given here)
inactive: dose: 100.0 mg/kg/injection, schedule: Q01DX009 (ip), vehicle: saline + alcohol 90 % of control | dose: 200.0 mg/kg/injection, schedule: Q01DX009 (ip), vehicle: saline + alcohol 93 % of control

CCOC(=O)c1c(NC(=O)CCC(=O)Nc2sc(C)c(C)c2C(=O)OCC)sc(C)c1C
inactive: dose: 0.09 mg/kg/injection, schedule: Q01DX009 (ip), vehicle: Klucel (hydroxypropylcellulose) (HPC) 100 % of control | dose: 0.19 mg/kg/injection, schedule: Q01DX009 (ip), vehicle: Klucel (hydroxypropylcellulose) (HPC) 95 % of control | dose: 0.39 mg/kg/injection, schedule: Q01DX009 (ip), vehicle: Klucel (hydroxypropylcellulose) (HPC) 100 % of control | dose: 0.78 mg/kg/injection, schedule: Q01DX009 (ip), vehicle: Klucel (hydroxypropylcellulose) (HPC) 89 % of control | dose: 1.56 mg/kg/injection, schedule: Q01DX009 (ip), vehicle: Klucel (hydroxypropylcellulose) (HPC) 95 % of control

COc1cc2cccc(OC)c(=O)c2c(O)c1OC
inactive: dose: 25.0 mg/kg/injection, schedule: Q01DX009 (ip), vehicle: Klucel (hydroxypropylcellulose) (HPC) 97 % of control | dose: 50.0 mg/kg/injection, schedule: Q01DX009 (ip), vehicle: Klucel (hydroxypropylcellulose) (HPC) 105 % of control | [7] 97 % of control

CC(C)c1c[nH]c(=O)[nH]c1=O
inactive: [7] 100 % of control | dose: 200.0 mg/kg/injection, schedule: Q01DX009 (ip), vehicle: Klucel (hydroxypropylcellulose) (HPC) 92 % of control | [8] 95 % of control

O=C(Nc1ccccc1C(F)(F)F)c1cccc(C(=O)Nc2ccccc2C(F)(F)F)c1
inactive: dose: 100.0 mg/kg/injection, schedule: Q04DX003 (ip), vehicle: carboxymethylcellulose (CMC) 100 % of control | dose: 200.0 mg/kg/injection, schedule: Q04DX003 (ip), vehicle: carboxymethylcellulose (CMC) 91 % of control

CN(C)CCOCCOC(=O)N1c2ccccc2Sc2ccccc21
inactive: [4] 102 % of control | [5] 112 % of control | [6] 116 % of control | [11] 109 % of control

Nc1c(S(=O)(=O)O)cc(Nc2ccccc2)c2c1C(=O)c1ccccc1C2=O
inactive: [6] 121 % of control | [11] 115 % of control | dose: 100.0 mg/kg/injection, schedule: Q01DX009 (ip), vehicle: saline 115 % of control

CCc1nc2cc(C)c(C)cc2[nH]1
inactive: dose: 12.5 mg/kg/injection, schedule: Q01DX009 (ip), vehicle: saline with Tween-80 106 % of control | [1] 104 % of control | [2] 104 % of control
